Data as given in patent US20240293430A1, “WITHAFERIN A AND IMMUNE CHECKPOINT BLOCKER COMBINATION THERAPIES” (University of South Florida, priority 2023, published 2024).

Tests used:
[1] = system: NSCLC cell lines (LLC, H1650, A549); assay: Annexin V apoptosis assay (flow cytometry); assay type: cell-based, mouse (LLC), human (H1650; settings: 48 h, compared to untreated cells
Experimental: FIGS. 1A-lE depict that WFA induces ER stress-mediated apoptosis in NSCLC cell lines. (FIG. 1A) NSCLC cells were plated on 96-well plates and treated with different concentrations of WFA ([…]) in triplicates. Forty-eight hours post-treatment, cell viability was determined using Cell Titer-Glo assay. Luminescence values were normalized to control untreated cells and IC50 values are represented as the mean of two independent experiments ±SEM. (FIG. 1B) NSCLC cells were treated WFA for forty-eight hours, then collected to measure apoptotic cell death using Annexin V assay in LLC cells, H1650 cells, and A549 cells. Percentages of early (annexin*DAPI-) and late (annexin*DAPI+) apoptotic cells are represented as means of two separate experiments ±SEM and statistical significance was calculated using one-way ANOVA and a Fisher LSD post hoc test was used to compare the mean of each group to that of the control group. (FIGS. 1C-1D) WFA treated cells were collected in Trizol and total RNA was isolated to measure the levels of Bax (FIG. 1C) and Bcl2 (FIG. 1D) mRNA using qRT-PCR. PCR experiments were repeated at least twice, and one representative experiment is shown as mean±SEM of the technical replicates. […] The quantification of western blot band density was performed using Image J software v.1.54d and normalized to housekeeping control protein in LLC cells (0-actin). […]

[2] = system: apoptotic marker transcripts in NSCLC cell lines; assay: qRT-PCR of pro- and anti-apoptotic transcripts; assay type: cell-based, mouse (LLC), human (H1650, A549)
Experimental: FIGS. 1A-lE depict that WFA induces ER stress-mediated apoptosis in NSCLC cell lines. (FIG. 1A) NSCLC cells were plated on 96-well plates and treated with different concentrations of WFA ([…]) in triplicates. Forty-eight hours post-treatment, cell viability was determined using Cell Titer-Glo assay. Luminescence values were normalized to control untreated cells and IC50 values are represented as the mean of two independent experiments ±SEM. (FIG. 1B) NSCLC cells were treated WFA for forty-eight hours, then collected to measure apoptotic cell death using Annexin V assay in LLC cells, H1650 cells, and A549 cells. Percentages of early (annexin*DAPI-) and late (annexin*DAPI+) apoptotic cells are represented as means of two separate experiments ±SEM and statistical significance was calculated using one-way ANOVA and a Fisher LSD post hoc test was used to compare the mean of each group to that of the control group. (FIGS. 1C-1D) WFA treated cells were collected in Trizol and total RNA was isolated to measure the levels of Bax (FIG. 1C) and Bcl2 (FIG. 1D) mRNA using qRT-PCR. PCR experiments were repeated at least twice, and one representative experiment is shown as mean±SEM of the technical replicates. (FIG. 1E) Western blot of ER stress markers p-eIF-2 and CHOP was performed using total lysates of WFA-treated LLC cells. The quantification of western blot band density was performed using Image J software v.1.54d and normalized to housekeeping control protein in LLC cells (0-actin). […] Data were obtained from two independent experiments.
FIGS. 7A-7I depict qRT-PCR analysis of the change in expression of pro-apoptotic and anti-apoptotic induced by WFA treatment. WFA increased the mRNA levels of proapoptotic protein Bak-1 in (FIG. 7A) LLC cells and BAD in (FIG. 7C) H1650 cells. […] PCR was repeated twice, and one representative experiment is shown as mean±SEM of 3 technical replicates. […] (FIGS. 7G-7I) Western blots.
Total cellular RNA was isolated from collected cell pellets using TRIzol reagent (Invitrogen, Waltham, MA, USA) and then quantified using the 2000 Nanodrop spectrophotometer (Thermo Fisher Scientific, Waltham, MA, USA). cDNA synthesis was performed using the Verso cDNA synthesis kit (Thermo Fisher Scientific, Waltham, MA, USA). qPCR was then performed using Forget-Me-Not EvaGreen qPCR Master Mix (Biotium, Fremont, CA, USA) in a Bio-Rad CFX384 thermocycler according to the manufacturer's instructions. The CFX Maestro software version 2.3 (Bio-Rad, Hercules, CA, USA) was used to calculate the ΔCt and ΔΔCt values and gene expression was normalized to housekeeping genes glyceraldehyde 3-phosphate dehydrogenase (GAPDH) or β-actin. The sequences of PCR primers used are listed in Table 2 (Integrated DNA Technologies, Inc, Coralville, IA, USA).

[3] = system: immunosuppressive MDSC population; settings: mouse, in vivo; cited from earlier work
[4] = system: PD-L1 upregulation in MC-38, HCT-116, 4T-1, and MDA-MB-231 cell lines; assay: PD-L1 with WFA and NAC in colorectal and breast cancer cell lines; assay type: cell-based, mouse (MC-38, 4T1), human (HCT-116; settings: breast cancer cell lines (4T1 1 μM, MDA-MB-231 2 μM WFA)

## CC1=C(CO)C(=O)O[C@@H]([C@@H](C)[C@H]2CC[C@H]3[C@@H]4C[C@H]5O[C@]56[C@@H](O)C=CC(=O)[C@]6(C)[C@H]4CC[C@]23C)C1 [WFA, Withaferin A]
[1]
  early and late apoptotic cell populations: significant increase
[2]
  Bax transcripts: increased
  Bcl-2 transcripts: reduced
[2]; H1650 cells
  BAD transcripts: increased
[2]; LLC and A549
  Survivin transcripts: reduced
  Xiap transcripts: reduced
[2]; LLC cells
  Bak-1 transcripts: increased
[3]
  MDSC tumor infiltration and immunosuppressive function: reducing
[4]
  PD-L1 expression: increases
